Source: patent publication US20160102317A1, “PLANTS HAVING INCREASED TOLERANCE TO HERBICIDES” (BASF SE, priority 2013, published 2016)
Several values for one entry are separate records, joined by “and”; a condition that tells them apart may be missing. Equal values may be shown once.

Experiments:
[1] = tested on: Wild-type Arabidopsis plants; experiment: Arabidopsis growth inhibition in 48-well plates, tolerance factor; type: in vivo, Arabidopsis thaliana; settings: plant growth IC50 relative to wild-type plants; Wild-type line
Procedure: (§1) Depending on the species, the plants are kept at 10-25° C. or 20-35° C. The test period extends over 3 weeks. During this time, the plants are tended and their response to the individual treatments is evaluated. Herbicide injury evaluations are taken at 2 and 3 weeks after treatment. Plant injury is rated on a scale of 0 to 9, 0 being no injury and 9 being complete death. Tolerance to HPPD-inhibiting herbicides can also be assessed in Arabidopsis. In this case transgenic Arabidopsis thaliana plants are assayed for improved tolerance to HPPD-inhibiting herbicides in 48-well plates. Seeds are surface sterilized by stirring for 5 min in ethanol+water (70+30 by volume), rinsing one time with ethanol+water (70+30 by volume) and two times with a sterile, deionized water. The seeds are resuspended in 0.1% agar dissolved in water (w/v). Four to five seeds per well are plated on solid nutrient medium consisting of half-strength Murashige Skoog nutrient solution, pH 5.8 (Murashige and Skoog (1962) Physiologia Plantarum 15: 473-497). […] Seven to ten days after seeding growth inhibition is evaluated by comparison to wild-type plants. Tolerance factor is calculated by dividing the plant growth IC50 value of transgenic plants containing a HPPD and/or HST sequence by that of wild-type plants.

[2] = target: T1, Hordeum HPPD (SEQ ID NO:2), wild-type (Hordeum vulgare, UniProt O48604, A164G/R146V/R147D/R148G); experiment: HPPD activity assay (HGA by HPLC), wild-type enzyme characterization; type: biochemical
T1 construct: His (N); made in house; host or cells: E. coli BL21 (DE3)
T1 sequence (O48604 whole entry R146V/R147D/R148G/A164G): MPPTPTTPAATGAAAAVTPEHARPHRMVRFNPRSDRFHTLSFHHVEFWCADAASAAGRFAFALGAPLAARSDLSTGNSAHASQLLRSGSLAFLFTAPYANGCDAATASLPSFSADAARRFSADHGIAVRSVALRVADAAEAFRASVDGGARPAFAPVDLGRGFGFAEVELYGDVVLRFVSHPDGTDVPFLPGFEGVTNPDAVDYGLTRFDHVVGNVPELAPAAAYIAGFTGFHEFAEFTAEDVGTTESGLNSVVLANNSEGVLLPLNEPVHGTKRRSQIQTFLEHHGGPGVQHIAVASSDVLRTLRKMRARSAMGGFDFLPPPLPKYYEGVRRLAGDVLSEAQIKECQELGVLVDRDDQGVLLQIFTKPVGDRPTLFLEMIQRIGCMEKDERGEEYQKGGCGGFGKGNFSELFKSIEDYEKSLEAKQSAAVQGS
Procedure: (§2) HPPD produces homogentisic acid and CO2 from 4-hydroxyphenylpyruvate (4-HPP) and 02. The activity assay for HPPD is based on the analysis of homogentisic acid by reversed phase HPLC. The assay mixture can contain 150 mM potassium phosphate buffer pH 7.0, 50 mM L-ascorbic acid, 100 μM Catalase (Sigma-Aldrich), 1 μM FeSO4 and 0.2 units of purified HPPD enzyme in a total volume of 505 μl. 1 unit is defined as the amount of enzyme that is required to produce 1 nmol of HGA per minute at 20° C.
(§3) After a preincubation of 30 min the reaction is started by adding 4-HPP to a final concentration of 0.05 mM. The reaction is allowed to proceed for 45 min at room temperature. The reaction is stopped by the addition of 50 μl of 4.5 M phosphoric acid. The sample is filtered using a […] pore size PVDF filtration device.
(§4) 5 μl of the cleared sample is analyzed on an UPLC HSS T3 column (particle size 1.8 μm, dimensions 2.1×50 mm; Waters) by isocratic elution using 90% 20 mM NaH2PO4 pH 2.2, 10% methanol (v/v).
(§5) HGA is detected electrochemically at 750 mV (mode: DC; polarity: positive) and quantified by integrating peak areas (Empower software; Waters).
(§6) Inhibitors are dissolved in DMSO (dimethylsulfoxide) to a concentration of 0.5 mM. From this stock solution serial five-fold dilutions are prepared in DMSO, which are used in the assay. The respective inhibitor solution accounts for 1% of the assay volume. […] Activities are normalized by setting the uninhibited enzyme activity to 100%. IC50 values are calculated using non-linear regression.
Using methods which are described in the above examples or well known in the art, purified, recombinant wild-type HPPD enzymes are characterized with respect to their kinetic properties and sensitivity towards HPPD inhibiting herbicides. Apparent michaelis constants (Km) and maximal reaction velocities (Vmax) are calculated by non-linear regression with the software GraphPad Prism 5 (GraphPad Software, La Jolla, USA) using a substrate inhibition model. […] Weighted means (by standard error) of Km and IC50 values are calculated from at least three independent experiments.
(§7) Field performance of the HPPD enzyme, which is used as a herbicide tolerance trait, may depend not only on its lack of sensitivity towards HPPD inhibiting herbicides but also on its activity. To assess the potential performance of a herbicide tolerance trait a tolerance index (TI) is calculated using the following formula: […]
(§8) Easy comparison and ranking of each trait is enabled by normalizing tolerance indexes on Arabidopsis wild-type HPPD.

[3] = tested on: Arabidopsis overexpression line AtHPPD (Seq ID: 53); experiment: Arabidopsis growth inhibition in 48-well plates, tolerance factor; type: in vivo, Arabidopsis thaliana; settings: plant growth IC50 of transgenic / wild-type plants
Description: Rows A-F are individual events. Non-transformed control plants are marked as wild-type (WT). The HPPD-inhibiting herbicide used refers to (NE)-8-chloro-N-(4-methoxy-1,2,5-oxadiazol-3-ylidene)-4,4-dimethyl-1,1-dioxo-2,3-dihydrothiochromene-7-carboxamide
Arabidopsis thaliana is transformed with HPPD or HST sequences by floral dip method as described by McElver and Singh (WO 2008/124495). Transgenic Arabidopsis plants are subjected to TaqMan analysis for analysis of the number of integration loci.
as §1, with “plates.” for “plates. Seeds are surface sterilized by stirring for 5 min in ethanol+water (70+30 by volume), rinsing one time with ethanol+water (70+30 by volume) and two times with a sterile, deionized water. The seeds are resuspended in 0.1% agar dissolved in water (w/v). Four to five seeds per well are plated on solid nutrient medium consisting of half-strength Murashige Skoog nutrient solution, pH 5.8 (Murashige and Skoog (1962) Physiologia Plantarum 15: 473-497).”

[4] = target: T2, Hordeum HPPD (SEQ ID: 2) L353M, P321R, L320Q (Hordeum vulgare, UniProt O48604, L320Q/L353M/P321R); experiment: HPPD activity assay, in vitro characterization of HPPD mutants; type: biochemical; settings: Table 16, Hordeum wild-type = 1
T2 construct: His (N); made in house; host or cells: E. coli BL21 (DE3)
T2 sequence (O48604 whole entry R146V/R147D/R148G/A164G/L320Q/P321R/L353M): as the sequence (O48604 whole entry R146V/R147D/R148G/A164G) above, with L320Q, P321R, L353M counted along it
Procedure: as §2, §3, §4, §5, §6
(§9) Purified, mutant HPPD enzymes are obtained by the methods described above. Dose response and kinetic measurements are carried out using the described HPPD activity assay. Apparent michaelis constants (Km) and maximal reaction velocities (Vmax) are calculated by non-linear regression with the software GraphPad Prism 5 (Graph Pad Software, La Jolla, USA) using a substrate inhibition model. […] Weighted means (by standard error) of Km and IC50 values are calculated from at least three independent experiments.
as §7, with “of the optimized HPPD enzyme,” for “of the HPPD enzyme,”, “herbicide tolerance trait may depend” for “herbicide tolerance trait, may depend”
as §8

[5] = target: T3, Hordeum HPPD (SEQ ID: 2) L353M, P321R, V212I (Hordeum vulgare, UniProt O48604, L353M/P321R/V212I); experiment: as above; type: biochemical; settings: Table 16, Hordeum wild-type = 1
T3 construct: His (N); made in house; host or cells: E. coli BL21 (DE3)
T3 sequence (O48604 whole entry R146V/R147D/R148G/A164G/V212I/P321R/L353M): as the sequence (O48604 whole entry R146V/R147D/R148G/A164G) above, with V212I, P321R, L353M counted along it
Procedure: as §2, §3, §4, §5, §6, §9
as §7, with “of the optimized HPPD enzyme,” for “of the HPPD enzyme,”, “herbicide tolerance trait may depend” for “herbicide tolerance trait, may depend”
as §8

[6] = target: T4, Arabidopsis HPPD (SEQ ID: 53) M335H, P336A, E363Q (Arabidopsis thaliana, UniProt P93836, E363Q/M335H/P336A); experiment: as above; type: biochemical; settings: Table 15, Arabidopsis HPPD variant M335H, wild-type = 1
T4 construct: PCR-based site directed mutagenesis of pEXP5-NT/TOPO®-AtHPPD is done; His6 (N); made in house; host or cells: E. coli BL21 (DE3)
T4 sequence (P93836 whole entry M335H/P336A/E363Q): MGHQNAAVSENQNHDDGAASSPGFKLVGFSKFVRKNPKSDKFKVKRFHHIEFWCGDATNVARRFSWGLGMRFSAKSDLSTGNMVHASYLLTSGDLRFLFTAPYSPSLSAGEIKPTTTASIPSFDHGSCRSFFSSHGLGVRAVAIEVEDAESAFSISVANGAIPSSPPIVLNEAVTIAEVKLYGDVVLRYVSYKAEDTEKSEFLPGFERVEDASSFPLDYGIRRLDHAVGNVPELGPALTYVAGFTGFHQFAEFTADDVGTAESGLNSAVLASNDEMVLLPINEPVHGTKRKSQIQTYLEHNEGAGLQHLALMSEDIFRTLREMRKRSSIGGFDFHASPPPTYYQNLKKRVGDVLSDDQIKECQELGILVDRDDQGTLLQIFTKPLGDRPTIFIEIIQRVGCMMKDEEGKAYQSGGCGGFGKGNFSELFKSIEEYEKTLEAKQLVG
Procedure: as §2, §3, §4, §5, §6, §9
as §7, with “of the optimized HPPD enzyme,” for “of the HPPD enzyme,”, “herbicide tolerance trait may depend” for “herbicide tolerance trait, may depend”
as §8

[7] = target: T5, Hordeum HPPD (SEQ ID: 2) G407C (Hordeum vulgare, UniProt O48604, A164G/G407C/R146V/R147D/R148G); experiment: as above; type: biochemical; settings: Table 16, Hordeum wild-type = 1
T5 construct: His (N); made in house; host or cells: E. coli BL21 (DE3)
T5 sequence (O48604 whole entry R146V/R147D/R148G/A164G/G407C): as the sequence (O48604 whole entry R146V/R147D/R148G/A164G) above, with G407C counted along it
Procedure: as §2, §3, §4, §5, §6, §9
as §7, with “of the optimized HPPD enzyme,” for “of the HPPD enzyme,”, “herbicide tolerance trait may depend” for “herbicide tolerance trait, may depend”
as §8

[8] = Table 16, Hordeum HPPD variant Wild-type

SMILES	Tolerance factor towards Inhibitor 2 [1]	TI Inhibitor 2 (normalized tolerance index) [2, 8]	Tolerance factor towards Inhibitor 2 [3]	TI Inhibitor 2 (normalized tolerance index) [4]	Tolerance factor towards Inhibitor 1 [1]	Ki [2]	TI Inhibitor 1 (normalized tolerance index) ([2]; Table 12, Hordeum HPPD, normalized to reference SEQ ID NO:53)	TI Inhibitor 1 (normalized tolerance index) [2, 8]	Tolerance factor towards Inhibitor 1 [3]	TI Inhibitor 1 (normalized tolerance index) [5]	TI Inhibitor 1 (normalized tolerance index) [6]	TI Inhibitor 1 (normalized tolerance index) [7]	TI Inhibitor 1 (normalized tolerance index) [4]
Cc1c(C(=O)Nc2nnnn2C)ccc2c1C(=O)C(C)(C)CS2(=O)=O [Inhibitor 2, 3,3,5-trimethyl-N-(1-methyltetrazol-5-yl)-1,1,4-trioxo-2H-thiochromene-6-carboxamide]	1	1	3	3.5 and 3.4									
COc1no[nH]/c1=N/C(=O)c1ccc2c(c1Cl)S(=O)(=O)CCC2(C)C [Inhibitor 1, (NE)-8-chloro-N-(4-methoxy-1,2,5-oxadiazol-3-ylidene)-4,4-dimethyl-1,1-dioxo-2,3-dihydrothiochromene-7-carboxamide]					1	38 nM	0.9	1	6.4	2.9	0.3	3.3	1.2
